pEC50, pIC50: −log10 of the molar value. Where a name gives a salt, the structure may show the parent alone. Read-outs that look alike come from different tables or passages of the source.
Tests used:
[1] = target: T1, Full-length wild type HIV-1 integrase (SF1) (Human immunodeficiency virus type 1 group M subtype B, UniProt P04585); test: Integrase strand-transfer scintillation proximity assay; format: biochemical
T1 construct: made in house; host or cells: E. coli BL21 (DE3)

[2] = tested on: HIV-1 RF virus in CEM-SS cells; test: HIV-1 cell protection assay (XTT dye reduction); format: cell-based
How it was run: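 Infected CEM-SS cultures incubated six days, then XTT with phenazine methosulfate added for 4 h; viability read as formazan absorbance at 450 nm. Formazan expressed as percent of uninfected, compound-free cells; CC50 from uninfected treated cells, therapeutic index as CC50/EC50.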

[3] = strand-transfer SPA, 246 nM integrase, 50 nM host DNA, 37° C., 50 min, read-out: IC50
[4] = Human immunodeficiency virus 1, 144 h, RF strain of HIV-1, CEM-SS cells, XTT read-out after six days, read-out: EC50
[5] = Human immunodeficiency virus 1, CEM-SS, 144 h

Cc1cc2c(ncc3c2c(CN2CCCCC2)cn3Cc2ccc(F)cc2)c(=O)n1O [Example 101, 3-(4-fluorobenzyl)-7-hydroxy-8-methyl-1-(piperidin-1-ylmethyl)-3,7-dihydro-6H-pyrrolo[2,3-c]-1,7-naphthyridin-6-one]
pIC50 [1, 3]: 7.85
pEC50 [2, 4]: 9.34

CN(CCc1cn(Cc2ccc(F)cc2)c2cnc3c(c12)CCN(O)C3=O)C1CCOCC1 [Example 108, 3-(4-fluorobenzyl)-7-hydroxy-1-(2-(methyl(tetrahydro-2H-pyran-4-yl)amino)ethyl)-8,9-dihydro-3H-pyrrolo[2,3-c][1,7]naphthyridin-6(7H)-one]
pIC50 [1, 3]: 7.68
pEC50 [2, 4]: 7.80

CCCCOCCOCc1cn(Cc2ccc(F)cc2)c2cnc3c(c12)CCN(O)C3=O [Example 59]
pIC50 [1, 3]: 7.80
pEC50 [2, 4]: 8.31

CN(Cc1cn(Cc2ccc(F)cc2)c2cnc3c(c12)CCN(O)C3=O)CC(F)(F)F [Example 73, 3-(4-fluorobenzyl)-7-hydroxy-1-{[methyl(2,2,2-trifluoroethyl)amino]methyl}-3,7,8,9-tetrahydro-6H-pyrrolo[2,3-c]-1,7-naphthyridin-6-one]
pIC50 [1, 3]: 8.15
pEC50 [2, 4]: 9.40

CCCCOCCOCc1cn(Cc2ccc(F)cc2)c2cnc3c(=O)n(O)ccc3c12 [Example 82, 1-[(2-butoxyethoxy)methyl]-3-(4-fluorobenzyl)-7-hydroxy-3,7-dihydro-6H-pyrrolo[2,3-c]-1,7-naphthyridin-6-one]
pIC50 [1, 3]: 8.00
pEC50 [2, 4]: 9.43

O=C1c2ncc3c(c(CCCO)cn3Cc3ccc(F)cc3)c2CCN1O [Example 120, 3-(4-fluorobenzyl)-7-hydroxy-1-(3-hydroxypropyl)-3,7,8,9-tetrahydro-6H-pyrrolo[2,3-c]-1,7-naphthyridin-6-one]
pIC50 [1, 3]: 7.89
pEC50 [2, 4]: 8.05

CN1CCN(CCCc2cn(Cc3ccc(F)cc3)c3cnc4c(c23)CCN(O)C4=O)CC1=O [Example 127, 3-(4-fluorobenzyl)-7-hydroxy-1-[3-(4-methyl-3-oxopiperazin-1-yl)propyl]-3,7,8,9-tetrahydro-6H-pyrrolo[2,3-c]-1,7-naphthyridin-6-one]
pIC50 [1, 3]: 7.85
pEC50 [2, 4]: 7.40

CCn1ccnc1CN(C)Cc1cn(Cc2ccc(F)cc2)c2cnc3c(c12)CCN(O)C3=O [Example 70, 1-{[[(1-ethyl-1H-imidazol-2-yl)methyl](methyl)amino]methyl}-3-(4-fluorobenzyl)-7-hydroxy-3,7,8,9-tetrahydro-6H-pyrrolo[2 3-c]-1,7-naphthyridin-6-one]
pIC50 [1, 3]: 7.66
pEC50 [2, 4]: 7.37

CC(=O)C1CCN(Cc2cn(Cc3ccc(F)cc3)c3cnc4c(c23)CCN(O)C4=O)CC1 [Example 99, 1-[(4-acetylpiperidin-1-yl)methyl]-3-(4-fluorobenzyl)-7-hydroxy-3,7,8,9-tetrahydro-6H-pyrrolo[2,3-c]-1,7-naphthyridin-6-one]
pIC50 [1, 3]: 7.66
pEC50 [2, 4]: 8.30

CN(CCc1cn(Cc2ccc(F)cc2)c2cnc3c(c12)CCN(O)C3=O)CC(F)(F)F [Example 113, 3-(4-fluorobenzyl)-7-hydroxy-1-{2-[methyl(2,2,2-trifluoroethyl)amino]ethyl}-3,7,8,9-tetrahydro-6H-pyrrolo[2,3-c]-1,7-naphthyridin-6-one]
pIC50 [1, 3]: 7.82
pEC50 [2, 4]: 8.70

O=C1c2ncc3c(c(Cl)cn3Cc3ccc(F)cc3)c2CCN1O [Example 52, 1-chloro-3-(4-fluorobenzyl)-7-hydroxy-3,7,8,9-tetrahydro-6H-pyrrolo[2,3-c]-1,7-naphthyridin-6-one]
pIC50 [1, 3]: 7.72
pEC50 [2, 4]: 9.04

CN(C)C(=O)c1cccc(-c2cn(Cc3ccc(F)cc3)c3cnc4c(=O)n(O)ccc4c23)c1 [Example 8, 3-[3-(4-fluorobenzyl)-7-hydroxy-6-oxo-6,7-dihydro-3H-pyrrolo[2,3-c]-1,7-naphthyridin-1-yl]-N,N-dimethylbenzamide]
pIC50 [1, 3]: 7.43
pEC50 [2, 4]: 8.30

C[C@@H]1CN(Cc2cn(Cc3ccc(F)cc3)c3cnc4c(c23)CCN(O)C4=O)C[C@H](C)O1 [Example 45, 1-{[(2R,6S)-2,6-dimethylmorpholin-4-yl]methyl}-3-(4-fluorobenzyl)-7-hydroxy-3,7,8,9-tetrahydro-6H-pyrrolo[2,3-c]-1,7-naphthyridin-6-one]
pIC50 [1, 3]: 8.04
pEC50 [2, 4]: 9.35

COC[C@H]1CCCN1C(=O)c1cn(Cc2ccc(F)cc2)c2cnc3c(c12)CCN(O)C3=O [Example 19, 3-(4-fluorobenzyl)-7-hydroxy-1-{[(2R)-2-(methoxymethyl)pyrrolidin-1-yl]carbonyl}-3,7,8,9-tetrahydro-6H-pyrrolo[2,3-c]-1,7-naphthyridin-6-one]
pIC50 [1, 3]: 7.44
pEC50 [2, 5]: 8.35

Cc1cc2c(ncc3c2c(CN2CCCC2)cn3Cc2ccc(F)cc2)c(=O)n1O [Example 46, 3-(4-fluorobenzyl)-7-hydroxy-8-methyl-1-(pyrrolidin-1-ylmethyl)-3,7-dihydro-6H-pyrrolo[2,3-c]-1,7-naphthyridin-6-one]
pIC50 [1, 3]: 8.08
pEC50 [2, 4]: 8.96

O=C1c2ncc3c(c(Br)cn3Cc3ccc(F)cc3)c2CCN1O [Example 61, 1-bromo-3-(4-fluorobenzyl)-7-hydroxy-3,7,8,9-tetrahydro-6H-pyrrolo[2,3-c]-1,7-naphthyridin-6-one]
pIC50 [1, 3]: 7.77
pEC50 [2, 4]: 9.49

O=C1c2ncc3c(c(CCN4CCCC4)cn3Cc3ccc(F)cc3)c2CCN1O [Example 103, 3-(4-fluorobenzyl)-7-hydroxy-1-(2-(pyrrolidin-1-yl)ethyl)-8,9-dihydro-3H-pyrrolo[2,3-c][1,7]naphthyridin-6(7H)-one]
pIC50 [1, 3]: 7.62
pEC50 [2, 4]: 7.74

CN(CCc1cn(Cc2ccc(F)cc2)c2cnc3c(c12)CCN(O)C3=O)CC1CC1 [Example 114]
pIC50 [1, 3]: 7.72
pEC50 [2, 4]: 8.00

O=C1c2ncc3c(c(COCCOc4ccccc4)cn3Cc3ccc(F)cc3)c2CCN1O [Example 67, 3-(4-fluorobenzyl)-7-hydroxy-1-[(2-phenoxyethoxy)methyl]-3,7,8,9-tetrahydro-6H-pyrrolo[2,3-c]-1,7-naphthyridin-6-one]
pIC50 [1, 3]: 7.82
pEC50 [2, 4]: 9.00

CN(C(=O)c1cn(Cc2ccc(F)cc2)c2cnc3c(c12)CCN(O)C3=O)C1CCOCC1 [Example 20, 3-(4-fluorobenzyl)-7-hydroxy-N-methyl-6-oxo-N-(tetrahydro-2H-pyran-4-yl)-6,7,8,9-tetrahydro-3H-pyrrolo[2,3-c]-1,7-naphthyridine-1-carboxamide]
pIC50 [1, 3]: 7.72
pEC50 [2, 5]: 7.28

CCOCCCOCc1cn(Cc2ccc(F)cc2)c2cnc3c(c12)CCN(O)C3=O [Example 51, 1-[(3-ethoxypropoxy)methyl]-3-(4-fluorobenzyl)-7-hydroxy-3,7,8,9-tetrahydro-6H-pyrrolo[2,3-c]-1,7-naphthyridin-6-one hydrochloride]
pIC50 [1, 3]: 7.77
pEC50 [2, 5]: 9.40

O=c1c2ncc3c(c(COCC4CCC4)cn3Cc3ccc(F)cc3)c2ccn1O [Example 90, 1-[(cyclobutylmethoxy)methyl]-3-(4-fluorobenzyl)-7-hydroxy-3,7-dihydro-6H-pyrrolo[23-c]-17-naphthyridin-6-one]
pIC50 [1, 3]: 7.23
pEC50 [2, 4]: 7.85

COC(C)(C)CCc1cn(Cc2ccc(F)cc2)c2cnc3c(c12)CCN(O)C3=O [Example 121, 3-(4-fluorobenzyl)-7-hydroxy-1-(3-methoxy-3-methylbutyl)-3,7,8,9-tetrahydro-6H-pyrrolo[2,3-c]-1,7-naphthyridin-6-one]
pIC50 [1, 3]: 7.85
pEC50 [2, 4]: 9.40

CN(CCCc1cn(Cc2ccc(F)cc2)c2cnc3c(c12)CCN(O)C3=O)CC1CCOCC1 [Example 105, 3-(4-fluorobenzyl)-7-hydroxy-1-{3-[methyl(tetrahydro-2H-pyran-4-ylmethyl)amino]propyl}-3,7,8,9-tetrahydro-6H-pyrrolo[2,3-c]-1,7-naphthyridin-6-one]
pIC50 [1, 3]: 7.62
pEC50 [2, 4]: 7.80

CC(C)N(CCOCc1cn(Cc2ccc(F)cc2)c2cnc3c(c12)CCN(O)C3=O)C(C)C [Example 80, 1-{[2-(diisopropylamino)ethoxy]methyl}-3-(4-fluorobenzyl)-7-hydroxy-3,7,8,9-tetrahydro-6H-pyrrolo[2,3-c]-1,7-naphthyridin-6-one]
pIC50 [1, 3]: 7.64
pEC50 [2, 4]: 7.92

COCCOCc1cn(Cc2ccc(F)cc2)c2cnc3c(c12)CCN(O)C3=O [Example 22, 3-(4-fluorobenzyl)-7-hydroxy-1-[(2-methoxyethoxy)methyl]-3,7,8,9-tetrahydro-6H-pyrrolo[2,3-c]-1,7-naphthyridin-6-one]
pIC50 [1, 3]: 7.85
pEC50 [2, 4]: 8.82

O=C1c2ncc3c(c(CN4CCCC4)cn3Cc3ccc(F)cc3)c2CCN1O [Example 23, 3-(4-fluorobenzyl)-7-hydroxy-1-(pyrrolidin-1-ylmethyl)-3,7,8,9-tetrahydro-6H-pyrrolo[2,3-c]-1,7-naphthyridin-6-one]
pIC50 [1]: 7.57
pEC50 [2, 5]: 8.40

COC1CCN(C(=O)c2cn(Cc3ccc(F)cc3)c3cnc4c(c23)CCN(O)C4=O)CC1 [Example 15, 3-(4-fluorobenzyl)-7-hydroxy-1-[(4-methoxypiperidin-1-yl)carbonyl]-3,7,8,9-tetrahydro-6H-pyrrolo[2,3-c]-1,7-naphthyridin-6-one]
pIC50 [1, 3]: 7.85
pEC50 [2, 5]: 7.55

CC(C)COCc1cn(Cc2ccc(F)cc2)c2cnc3c(c12)CCN(O)C3=O [Example 56, 3-(4-fluorobenzyl)-7-hydroxy-1-(isobutoxymethyl)-3,7,8,9-tetrahydro-6H-pyrrolo[2,3-c]-1,7-naphthyridin-6-one]
pIC50 [1, 3]: 7.96
pEC50 [2, 4]: 9.49

O=C1c2ncc3c(c(CCNCC(F)(F)F)cn3Cc3ccc(F)cc3)c2CCN1O [Example 115, 3-(4-fluorobenzyl)-7-hydroxy-1-{2-[(2,2,2-trifluoroethyl)amino]ethyl}-3,7,8,9-tetrahydro-6H-pyrrolo[2,3-c]-1,7-naphthyridin-6-one]
pIC50 [1, 3]: 7.85
pEC50 [2, 4]: 8.70
